Experimental data from ChEMBL document CHEMBL3992489, “Potentiation of the Fosmidomycin analogue FR 900098 with substituted 2-oxazolines against Francisella novicida” (2016).
The source made the active and inactive calls. The calls are words filed in the database; no cut-off is given here.

Assays:
[1] = Antibacterial activity against Francisella novicida U112 after 48 hrs; format: functional, Francisella tularensis subsp. novicida U112; conditions: Francisella tularensis
[2] = Potentiation of FR900098-induced antibacterial activity against Francisella novicida U112 assessed as FR900098 MIC after 48 hrs; format: functional, Francisella tularensis subsp. novicida U112; conditions: Francisella tularensis
[3] = Antibacterial activity against Francisella philomiragia ATCC 25015 after 48 hrs; format: functional, Francisella philomiragia subsp. philomiragia ATCC 25015; conditions: ATCC 25015, 48 h
[4] = Potentiation of FR900098-induced antibacterial activity against Francisella philomiragia ATCC 25015 assessed as fold reduction in FR900098 MIC after 48 hrs; format: functional, Francisella philomiragia subsp. philomiragia ATCC 25015
[5] = Potentiation of FR900098-induced antibacterial activity against Francisella novicida U112 assessed as fold reduction in FR900098 MIC after 48 hrs; format: functional, Francisella tularensis subsp. novicida U112
[6] = Potentiation of FR900098-induced antibacterial activity against Francisella novicida U112 assessed as fold reduction in FR900098 MIC at 40 uM after 48 hrs; format: functional, Francisella tularensis subsp. novicida U112
[7] = Potentiation of FR900098-induced antibacterial activity against Francisella novicida U112 assessed as FR900098 MIC at 40 uM after 48 hrs; format: functional, Francisella tularensis subsp. novicida U112; conditions: Francisella tularensis
[8] = test system: Francisella tularensis subsp. novicida U112; experiment: Bactericidal activity against Francisella novicida U112 at 25% antibacterial MIC up to 24 hrs by time kill curve assay; format: functional
[9] = test system: Francisella tularensis subsp. novicida U112; experiment: Potentiation of FR900098-induced antibacterial activity against Francisella novicida U112 assessed as reduction in FR900098 MIC at <30 uM after 48 hrs; format: functional

| Compound | MIC [1] | MIC [2] [µg/mL] | also measured |
| --- | --- | --- | --- |
| CCCCCc1ccc(C2=NCCO2)cc1 | 200 µM | 4 | MIC [3]: 200 µM; fold change (FC) [4]: 4 |
| CC(=O)N(O)CCCP(=O)(O)O [FR-900098] | 16 µg/mL |  | MIC [3]: 1020 µg/mL |
| CCCc1ccc(C2=NCCO2)cc1 | > 200 µM | 16 |  |
| CCCCCCc1ccc(C2=NCCS2)cc1 | > 200 µM | 2 | fold change (FC) [5]: 8 |
| C(=C\c1ccccc1)/C1=NCCO1 | > 200 µM | 32 |  |
| Cc1ccc(C2=NCCO2)cc1 | > 200 µM | 16 |  |
| CCCCCCc1ccc(C2OCCO2)cc1 | > 200 µM | 16 |  |
| CCCCc1ccc(C2=NCCO2)cc1 | > 200 µM | 4 | fold change (FC) [5]: 4 |
| CCCCCCCc1ccc(C2=NCCO2)cc1 | 100 µM | 2 | fold change (FC) [5]: 8 |
| CN(C)c1ccc(C2=NCCO2)cc1 | > 200 µM | 16 |  |
| CCCCCCc1ccc(-c2c[nH]c(N)n2)cc1 | 12.5 µM | 32 |  |
| CCCCCCCCCc1ccc(C2=NCCO2)cc1 | > 200 µM | 16 | fold change (FC) [5]: 8 |
| CCCCCCc1ccc(C2=NCCO2)cc1 | > 200 µM |  | fold change (FC) [4]: 32; fold change (FC) [6]: 1000; MIC [7]: 0.0156 µg/mL; Activity [8]: inactive; Activity [9]: inactive |
| CCCCCCc1ccc(-c2cncnc2)cc1 | 100 µM | 4 | fold change (FC) [5]: 32 |
| CCc1ccc(C2=NCCO2)cc1 | > 200 µM | 16 |  |
| c1cc(C2=NCCO2)ccn1 | > 200 µM | 16 |  |
| Fc1cc(C2=NCCO2)ccc1C(F)(F)F | > 200 µM | 16 |  |

| Compound | MIC [1] | MIC [2] [µg/mL] | also measured |
| --- | --- | --- | --- |
| CCCCCCc1ccc(C2=NCCN2)cc1 | 100 µM | 16 |  |
| Fc1cc(C2=NCCO2)cc(F)c1F | > 200 µM | 16 |  |
| CCCCCCc1ccc(C2SCCS2)cc1 | > 200 µM | 16 |  |
| CCCCCCc1ccc(-c2ncc[nH]2)cc1 | 12.5 µM | 32 |  |
| Brc1cccc(C2=NCCO2)c1 | > 200 µM | 16 |  |
| CCCCCCc1ccc(-c2ncco2)cc1 | > 200 µM | 16 |  |
| CCCCCCCCCCc1ccc(C2=NCCO2)cc1 | > 200 µM | 16 | fold change (FC) [5]: 8 |
| CCCCCc1ccc(C2=NCCS2)cc1 | 200 µM | 1 | fold change (FC) [5]: 16 |
| CCCCCCc1ccc(-c2ccncc2)cc1 | 100 µM | 0.5 |  |
| c1ccc(C2=NCCO2)cc1 | > 200 µM | 16 |  |
| CCCCCCc1ccc(C2=NCCCO2)cc1 | 50 µM | 4 | fold change (FC) [5]: 4 |
| CCCCCCc1ccc(C(=O)OC)cc1 | 200 µM | 8 |  |
| CCCCCCCCc1ccc(C2=NCCO2)cc1 | 200 µM | 2 | fold change (FC) [5]: 8 |
| CCCCCc1ccc(-c2ncco2)cc1 | 200 µM | 16 |  |
| c1ccc2cc(C3=NCCO3)ccc2c1 | 100 µM | 16 |  |
| c1ccc(/N=N/c2ccc(C3=NCCO3)cc2)cc1 | > 200 µM | 16 |  |
